According to paper PMC6923863 (BMC Pharmacology & Toxicology, 2019):

How the values were obtained:
Ca^2+ Channel L-Type = Ca^2+ Channel L-Type (Rattus norvegicus, UniProt P22002); type: binding; settings: only quoted where inhibition > 15%, read-out: Percent Inhibition at 10 μM
Sprague-Dawley rats [1] = test: Pre-pulse inhibition (PPI) of acoustic startle and behavioural testing; type: in vivo, rat
Sprague-Dawley rats [2] = test: Behavioural dysfunction scoring in minipump rats; settings: 12 mg/kg IV over 30 s
Sprague-Dawley rats [3] = test: Loss of righting reflex (LORR) following intravenous administration; type: in vivo, rat; settings: for LORR duration, mean (SEM): 12 mg/kg IV over 30 s
Sprague-Dawley rats [4] = test: Thermal sensitivity (tail flick latency) testing after bolus injection or infusion; type: in vivo, rat; settings: pre-emptive analgesia, hypnotic and sub-hypnotic IV dosing regimens
Sprague-Dawley rats [5] = test: Thermal tail flick latency in rats with saline or morphine osmotic minipumps (opioid tolerance); type: in vivo, rat
HCN1 K^+ Channel = target: T1, HCN1 K^+ Channel (Homo sapiens, UniProt O60741); test: Molecular target binding profile: patch-clamp functional assay (Eurofins Panlabs 952727); type: cell-based
T1 construct: Eurofins Panlabs Ltd., Taipei, Taiwan 952727
T1 sequence (O60741 1-890): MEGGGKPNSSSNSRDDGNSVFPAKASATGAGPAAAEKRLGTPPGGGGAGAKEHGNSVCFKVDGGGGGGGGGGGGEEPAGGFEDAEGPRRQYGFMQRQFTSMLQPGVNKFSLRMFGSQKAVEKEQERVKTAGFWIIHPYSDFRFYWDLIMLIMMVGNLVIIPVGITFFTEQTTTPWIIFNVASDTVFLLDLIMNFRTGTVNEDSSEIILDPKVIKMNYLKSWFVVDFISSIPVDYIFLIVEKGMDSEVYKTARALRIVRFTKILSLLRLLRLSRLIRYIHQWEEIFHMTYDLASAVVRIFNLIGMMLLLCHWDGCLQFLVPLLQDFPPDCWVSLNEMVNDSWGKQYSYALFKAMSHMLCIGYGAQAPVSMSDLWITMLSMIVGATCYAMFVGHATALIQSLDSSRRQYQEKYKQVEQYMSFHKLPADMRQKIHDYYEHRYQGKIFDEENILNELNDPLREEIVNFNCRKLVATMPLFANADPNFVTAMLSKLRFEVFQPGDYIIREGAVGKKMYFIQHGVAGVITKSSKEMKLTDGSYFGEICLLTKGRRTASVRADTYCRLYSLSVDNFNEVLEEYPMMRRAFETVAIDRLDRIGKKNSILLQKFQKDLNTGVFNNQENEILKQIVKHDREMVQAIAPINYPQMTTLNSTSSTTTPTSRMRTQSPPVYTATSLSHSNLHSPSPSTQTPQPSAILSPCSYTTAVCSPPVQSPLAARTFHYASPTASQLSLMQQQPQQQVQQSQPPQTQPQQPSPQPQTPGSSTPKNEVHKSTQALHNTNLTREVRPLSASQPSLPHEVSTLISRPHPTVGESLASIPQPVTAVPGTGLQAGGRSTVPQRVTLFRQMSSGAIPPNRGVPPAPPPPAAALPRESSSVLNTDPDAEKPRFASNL

Sequence of Ca^2+ Channel L-Type (P22002 whole entry): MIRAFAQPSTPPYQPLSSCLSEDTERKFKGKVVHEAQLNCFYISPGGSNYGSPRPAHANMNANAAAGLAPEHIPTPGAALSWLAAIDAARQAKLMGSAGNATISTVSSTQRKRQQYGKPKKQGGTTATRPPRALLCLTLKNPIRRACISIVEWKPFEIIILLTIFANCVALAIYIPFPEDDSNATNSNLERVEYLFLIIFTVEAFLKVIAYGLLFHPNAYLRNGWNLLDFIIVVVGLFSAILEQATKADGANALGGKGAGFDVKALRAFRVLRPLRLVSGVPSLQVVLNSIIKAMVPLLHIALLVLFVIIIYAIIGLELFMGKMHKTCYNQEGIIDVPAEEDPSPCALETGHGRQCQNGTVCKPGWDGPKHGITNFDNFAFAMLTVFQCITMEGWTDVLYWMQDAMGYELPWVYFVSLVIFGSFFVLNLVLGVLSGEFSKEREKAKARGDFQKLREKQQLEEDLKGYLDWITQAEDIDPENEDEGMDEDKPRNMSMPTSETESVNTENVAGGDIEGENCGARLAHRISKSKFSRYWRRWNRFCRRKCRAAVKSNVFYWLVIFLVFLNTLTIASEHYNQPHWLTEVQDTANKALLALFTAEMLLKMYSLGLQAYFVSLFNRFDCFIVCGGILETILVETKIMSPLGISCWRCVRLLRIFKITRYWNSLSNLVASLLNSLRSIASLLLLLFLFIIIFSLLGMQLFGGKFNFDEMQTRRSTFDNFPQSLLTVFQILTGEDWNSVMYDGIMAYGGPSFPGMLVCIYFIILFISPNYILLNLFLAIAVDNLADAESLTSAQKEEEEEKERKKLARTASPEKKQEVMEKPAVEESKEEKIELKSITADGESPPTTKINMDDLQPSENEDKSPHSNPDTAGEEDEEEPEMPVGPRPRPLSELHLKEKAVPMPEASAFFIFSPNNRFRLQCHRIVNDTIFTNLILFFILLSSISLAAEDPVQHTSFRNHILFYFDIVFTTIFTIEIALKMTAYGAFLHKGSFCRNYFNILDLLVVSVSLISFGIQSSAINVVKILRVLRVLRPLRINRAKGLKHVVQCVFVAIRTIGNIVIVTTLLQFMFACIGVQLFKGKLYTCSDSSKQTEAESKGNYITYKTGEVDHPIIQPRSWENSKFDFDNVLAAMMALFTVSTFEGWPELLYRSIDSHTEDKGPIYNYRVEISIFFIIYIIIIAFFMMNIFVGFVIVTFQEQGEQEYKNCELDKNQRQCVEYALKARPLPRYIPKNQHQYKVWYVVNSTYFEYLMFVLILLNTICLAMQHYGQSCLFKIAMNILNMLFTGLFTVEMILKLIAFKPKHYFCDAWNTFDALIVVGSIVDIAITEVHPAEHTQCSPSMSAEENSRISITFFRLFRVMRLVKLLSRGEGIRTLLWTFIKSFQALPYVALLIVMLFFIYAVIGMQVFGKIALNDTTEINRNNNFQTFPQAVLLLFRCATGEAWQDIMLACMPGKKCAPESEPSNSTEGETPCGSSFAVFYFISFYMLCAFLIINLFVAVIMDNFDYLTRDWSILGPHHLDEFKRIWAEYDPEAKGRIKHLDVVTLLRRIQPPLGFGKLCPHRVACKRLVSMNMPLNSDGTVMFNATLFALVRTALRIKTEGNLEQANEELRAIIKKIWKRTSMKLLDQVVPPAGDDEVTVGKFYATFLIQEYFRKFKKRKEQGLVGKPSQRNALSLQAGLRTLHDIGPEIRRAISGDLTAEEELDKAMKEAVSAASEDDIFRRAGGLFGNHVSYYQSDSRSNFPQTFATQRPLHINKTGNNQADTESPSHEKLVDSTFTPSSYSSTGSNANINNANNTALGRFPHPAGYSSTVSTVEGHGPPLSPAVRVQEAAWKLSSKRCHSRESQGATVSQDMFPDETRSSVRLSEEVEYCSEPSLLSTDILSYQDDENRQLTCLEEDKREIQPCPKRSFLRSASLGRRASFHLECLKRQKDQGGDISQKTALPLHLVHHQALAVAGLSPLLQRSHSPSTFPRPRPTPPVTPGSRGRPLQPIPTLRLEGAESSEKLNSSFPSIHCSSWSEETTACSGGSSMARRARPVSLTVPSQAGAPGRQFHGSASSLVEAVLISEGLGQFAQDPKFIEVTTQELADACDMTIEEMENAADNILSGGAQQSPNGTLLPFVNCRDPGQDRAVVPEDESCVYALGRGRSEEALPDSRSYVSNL

With `CNC1(c2ccccc2Cl)CCCCC1=O` (stereo not drawn) [Ketamine] as the compound, how does the “Percent Inhibition at 10 μM” value (GABAA Receptor; 10 μM, only quoted where inhibition > 15%) read?
The value was “− (Percent Inhibition at 10 μM only quoted where inhibition > 15%)”.

What about the IC50 (GABAA Receptor; radioligand binding) of the same compound?
Its IC50 is over 10 µM.

What about the inhibition at 10 µM (Ca^2+ Channel L-Type) of the same compound?
Its inhibition at 10 µM is 24%.

And the “Pre-pulse inhibition (PPI) effect” value (Sprague-Dawley rats [1]; 5 minutes after IV dosing, ketamine 10 mg/kg, KEA-1010 11 mg/kg, KEA-1037 10 mg/kg)?
Its value is “disrupted the PPI effect”.

And the “Percent PPI or startle amplitude” value (Sprague-Dawley rats [1]; 30 min after drug administration)?
The value was “No statistically significant differences”.

What about the Ataxia (Sprague-Dawley rats [1]; behavioural testing post dosing, ketamine 10 mg/kg, KEA-1010 11 mg/kg, KEA-1037 10 mg/kg IV) of the same compound?
Its Ataxia is “greater ataxia at 23 and 48 min post dosing compared with vehicle”.

What about the “Time of gradual return to normal behavioural patterns” value (Sprague-Dawley rats [2]; minipump rats) of the same compound?
Its value is 40 to 50 min.

What about the “Time of maximal behavioural dysfunction” value (Sprague-Dawley rats [2]; minipump rats) of the same compound?
Its value is 5 min.

And the “Behavioural dysfunction score / behavioural aberration” value (Sprague-Dawley rats [2]; saline or morphine minipump rats, days one and six)?
Its value is “profound behavioural aberration”.

What about the “LORR duration, mean (SEM)” value (Sprague-Dawley rats [3]; rats with morphine minipump (6 mg daily), day 1) of the same compound?
Its value is 247.0 (28.4) seconds.

What about the “LORR duration, mean (SEM)” value (Sprague-Dawley rats [3]; rats with morphine minipump (6 mg daily), day 6) of the same compound?
Its value is 272.5 (12.9) seconds.

What about the “LORR duration, mean (SEM)” value (Sprague-Dawley rats [3]; rats with saline minipump, day 1) of the same compound?
The value was 189.2 (23.8) seconds.

What about the “LORR duration, mean (SEM)” value (Sprague-Dawley rats [3]; rats with saline minipump, day 6) of the same compound?
The value was 277.0 (16.9) seconds.

And the “Induction of LORR, animals affected” value (Sprague-Dawley rats [3]; 12 mg/kg over 30 s, rats with saline or morphine minipumps, days one and six)?
The value was “all animals”.

And the ED50 (Sprague-Dawley rats [3]; Rattus norvegicus, rats, 30 s bolus intravenous injection)?
Its ED50 is 9.6 mg/kg.

What about the “Duration of loss of righting, mean (SEM)” value (Sprague-Dawley rats [3]; rats, 10 minute hypnotic IV infusion (KEA-1010 total 56 mg/kg; ketamine total 28 mg/kg)) of the same compound?
Its value is 418.0 (86.4) seconds.

What about the “Duration of loss of righting, mean (SEM)” value (Sprague-Dawley rats [3]; rats, hypnotic IV bolus over 15 s (KEA-1010 11 mg/kg; ketamine 10 mg/kg)) of the same compound?
Its value is 491.8 (67.7) seconds.

And the “Slope of LORR duration vs. dose curves” value (Sprague-Dawley rats [3]; rats, intravenous injection over 30 s)?
The value was 69.8 s/mg/kg.

And the “Thermal tail flick latency” value (Sprague-Dawley rats [4])?
The value was “prolonged thermal tail flick latency”.

And the “Thermal tail flick latency, augmentation of morphine analgesia” value (Sprague-Dawley rats [5]; 12 mg/kg IV over 30 s, morphine minipump animals, day one)?
Its value is “augmented morphine mediated analgesia”.

What about the “Thermal tail flick latency in opioid tolerant rats” value (Sprague-Dawley rats [5]; 12 mg/kg IV over 30 s, morphine minipump rats, day six) of the same compound?
The value was “TFL prolongation of similar magnitude to that of saline mini-pump subjects”.

What about the “Thermal tail flick latency” value (Sprague-Dawley rats [5]; 12 mg/kg IV over 30 s, opioid-naïve rats, day one post saline minipump insertion) of the same compound?
The value was “Prolongation of thermal tail flick”.

And the “Thermal tail flick latency” value (Sprague-Dawley rats [5]; 12 mg/kg IV over 30 s, saline minipump rats, day six)?
The value was “prolonged tail flick latency”.

What about the IC50 (HCN1 K^+ Channel) of the same compound?
Its IC50 is over 100 µM.

And the inhibition at 100 µM (HCN1 K^+ Channel; patch-clamp assay quoted at 100 μM, not 10 μM (top dose employed), read-out: Percent Inhibition)?
The inhibition at 100 µM was 15%.

`CN1CC[C@]23c4c5ccc(O)c4O[C@H]2[C@@H](O)C=C[C@H]3[C@H]1C5` [morphine] was tested. Which “Thermal tail flick latency compared with vehicle treated animals” value (Sprague-Dawley rats [5]; 24 h of continuous morphine treatment via minipump (6 mg daily)) did it give?
Its value is “significant antinociception”.

What about the “Time to development of tolerance to thermal tail flick stimuli” value (Sprague-Dawley rats [5]; continuous subcutaneous pump administration of morphine (6 mg/day) in rats) of the same compound?
The value was 3 to 4 days.
